Results taken from article PMC5412686 (Biopharmaceutics & Drug Disposition, 2017).
Values after ≈ are worked out from the molar mass of the structure shown. Read-outs that look alike come from different tables or passages of the source.

Legend:
[1] = Intrinsic metabolic clearance determined in human liver microsomes; type: in vitro ADME; conditions: pH 7.4
[2] = Humans, blood/plasma ratio; ref Supplemental Table S1; cited from earlier work
[3] = Rats, blood/plasma ratio; ref Supplemental Table S1; cited from earlier work
[4] = cited from earlier work
[5] = ref Supplemental Table S1, cited from earlier work; for HBD: number of hydrogen bond donors; for log D: octanol/water at pH 7.4; for PSA: polar surface area
[6] = Humans, cited from earlier work; for Urinary excretion (f e): excreted unchanged in urine, ref Supplemental Table S1; for CL: i.v.; for CL / F / Vss: ref Supplemental Table S2; for F: oral bioavailability
[7] = cited from earlier work; for F: po
[8] = Solubility in fasted state simulated intestinal fluid; type: physicochemical; conditions: FaSSIF, 37 °C, pH 6.5, fassif, thermodynamic from solid
[9] = human, Caco-2, pH 7.4, with cyclosporine A 10 μM
Caco‐2 cells (TC7 clone) = conditions: Equation 11 from measured P‐Caco2
[10] = Rats, fraction unbound; ref Supplemental Table S1; cited from earlier work
[11] = no medium marked (buffer pH 7.4), ref Supplemental Table S1
[12] = Rats, i.v., ref Supplemental Table S2
[13] = FaHIF, fasted human intestinal fluid

Structure (SMILES)	microsomal CLint at 1 μM [1]	Solubility (Biorelevant media or Buffer, pH 7.4) [4, 11]	HBD [5]	log D [5]	PSA [5]	Urinary excretion (f e) [6]	CL [6]	F [6]	Vss [6]	F ([7]; rat, in vivo)	CL [7, 12]	Papp at 2 h, 1 μM [9]	Calculated P eff from P‐Caco2 (Caco‐2 cells (TC7 clone))	also measured
Cc1ncc2n1-c1ccc(Cl)cc1C(c1ccccc1F)=NC2 [Midazolam]	392 µL/min/mg	0.024 mg/ml	0	1.53	20.1	< 1 % of dose	19.38 L/h	0.7	0.74 L/kg	0.25				R b [2]: 0.75; R b [3]: 0.81; Base pKa [5]: 5.6; CL ([7]; rat, in vivo, iv): 46 mL/min/kg
O=c1[nH]c2ccccc2n1CCCN1CCC(n2c(=O)[nH]c3cc(Cl)ccc32)CC1 [Domperidone]	166 µL/min/mg		2	3.33	66.8	< 1 % of dose	42.06 L/h				39.2 mL/min/kg	38.6 ×10⁻⁶ cm/s	4.3 10^−4 cm/s	solubility at 24 h [8]: 135 µg/mL (≈ 317 µM)
CCN(CC)CC(=O)Nc1c(C)cccc1C [Lidocaine]														R b [2]: 0.87; R b [3]: 1.27
COC(=O)C1=C(C)NC(C)=C(C(=O)OCC(C)C)C1c1ccccc1[N+](=O)[O-] (stereo not drawn) [Nisoldipine]	> 1000 µL/min/mg	0.006 mg/ml	1	4.96	110.5	< 1 % of dose	50.82 L/h	0.04	4.1 L/kg	0.03	45.8 mL/min/kg	56.7 ×10⁻⁶ cm/s	5.2 10^−4 cm/s	f up [10]: 0.009
COc1ccc(CCN(C)CCCC(C#N)(c2ccc(OC)c(OC)c2)C(C)C)cc1OC (stereo not drawn) [Verapamil]			0		56.3									
COCCc1ccc(OCC(O)CNC(C)C)cc1 (stereo not drawn) [Metoprolol]	19 µL/min/mg		2	0.16	55.0		65.34 L/h		5.18 L/kg		65.2 mL/min/kg			Solubility (Biorelevant media or Buffer, pH 7.4) [4, 13]: 299.8 (FaHIF) mg/ml
Oc1ccc2c3c1O[C@H]1[C@@H](O)CC[C@@]4(O)[C@@H](C2)N(CC2CCC2)CC[C@]314 [Nalbuphine]	< 10 µL/min/mg	35.5 mg/ml	3	0.81	78.3		90 L/h		4.63 L/kg		63 mL/min/kg	29.8 ×10⁻⁶ cm/s	3.8 10^−4 cm/s	Base pKa [5]: 10.0
COc1ccc(C(CN(C)C)C2(O)CCCCC2)cc1 (stereo not drawn) [Venlafaxine]	< 10 µL/min/mg		1	0.76	32.8	4.6 % of dose	60.35 L/h	0.37		0.13	64.5 mL/min/kg	33.2 ×10⁻⁶ cm/s	4.0 10^−4 cm/s	
CCC(C)n1ncn(-c2ccc(N3CCN(c4ccc(OCC5COC(Cn6cncn6)(c6ccc(Cl)cc6Cl)O5)cc4)CC3)cc2)c1=O (stereo not drawn) [Itraconazole]			0	3.27	84.7	< 1 % of dose	22.86 L/h	0.76		0.35	9.1 mL/min/kg			f up [10]: 0.009; Solubility (Biorelevant media or Buffer, pH 7.4) [4, 13]: 0.006 (FaHIF) mg/ml
CC[C@H]1OC(=O)[C@H](C)[C@@H](O[C@H]2C[C@@](C)(OC)[C@@H](O)[C@H](C)O2)[C@H](C)[C@@H](O[C@@H]2O[C@H](C)C[C@H](N(C)C)[C@H]2O)[C@](C)(O)C[C@@H](C)C(=O)[C@H](C)[C@@H](O)[C@]1(C)O [Erythromycin]		2 mg/ml	5	1.16	203.3		18.73 L/h	0.21	0.60 L/kg	0.14	105 mL/min/kg			
COc1ccc2[nH]c([S+]([O-])Cc3ncc(C)c(OC)c3C)nc2c1 (stereo not drawn) [Omeprazole]	< 10 µL/min/mg	0.035 mg/ml	1	2.23	71.0	0 % of dose	39.48 L/h	0.32		0.09	39.2 mL/min/kg			R b [2]: 0.59; R b [3]: 0.66
C=CC[C@@H]1/C=C(\C)C[C@H](C)C[C@H](OC)[C@H]2O[C@@](O)(C(=O)C(=O)N3CCCC[C@H]3C(=O)O[C@H](/C(C)=C/[C@@H]3CC[C@@H](O)[C@H](OC)C3)[C@H](C)[C@@H](O)CC1=O)[C@H](C)C[C@@H]2OC [Tacrolimus]		0.008 mg/ml	3	3.96	185.9	< 1 % of dose	78.75 L/h	0.21	1.74 L/kg	0.11	16.5 mL/min/kg			R b [2]: 35; R b [3]: 1.4; Base pKa [5]: 9.3
Cc1ccc(-c2nc3ccc(C)cn3c2CC(=O)N(C)C)cc1 [Zolpidem]	< 10 µL/min/mg	23 mg/ml	0		30.0	< 1 % of dose	18.85 L/h	0.78	0.68 L/kg	0.27	15 mL/min/kg			R b [2]: 0.66; R b [3]: 0.86; Acid pKa [5]: 6.3
C=CCc1ccccc1OCC(O)CNC(C)C (stereo not drawn) [Alprenolol]	128 µL/min/mg	0.55 mg/ml	2	1.34	46.2	0.5 % of dose	65.90 L/h	0.06	2.99 L/kg	0.04	79 mL/min/kg	31.5 ×10⁻⁶ cm/s	3.9 10^−4 cm/s	R b [2]: 0.76; R b [3]: 1.71
Cc1nnc2n1-c1ccc(Cl)cc1C(c1ccccc1Cl)=NC2 [Triazolam]		0.005 mg/ml	0		33.3	2 % of dose	12.72 L/h	0.8		0.16				f up [10]: 0.28; CL ([7]; rat, in vivo, iv): 51.4 mL/min/kg
COC(=O)C1=C(C)NC(C)=C(C(=O)OC)C1c1ccccc1[N+](=O)[O-] [Nifedipine]						0 % of dose								
COc1ccc([C@@H]2Sc3ccccc3N(CCN(C)C)C(=O)[C@@H]2OC(C)=O)cc1 [Diltiazem]	35 µL/min/mg	0.47 mg/ml	0		56.5		48.3 L/h		5.2 L/kg	0.06	42 mL/min/kg			Base pKa [5]: 8.1
CN1CCN2c3ncccc3Cc3ccccc3C2C1 (stereo not drawn) [Mirtazapine]	11 µL/min/mg	0.002 mg/ml	0	0.28	12.3		38.3 L/h	0.4	3.52 L/kg	0.07	29.4 mL/min/kg	33.2 ×10⁻⁶ cm/s	4.0 10^−4 cm/s	
CCCc1nn(C)c2c(=O)[nH]c(-c3cc(S(=O)(=O)N4CCN(C)CC4)ccc3OCC)nc12 [Sildenafil]	98 µL/min/mg	3.5 mg/ml	1	2.45	105.2		40.08 L/h	0.41		0.06	38.5 mL/min/kg	28.6 ×10⁻⁶ cm/s	3.7 10^−4 cm/s	Base pKa [5]: 6.0
COCCOC(=O)C1=C(C)NC(C)=C(C(=O)OC(C)C)C1c1cccc([N+](=O)[O-])c1 (stereo not drawn) [Nimodipine]	> 1000 µL/min/mg	0.024 mg/ml	1	2.86	121.6		58.8 L/h	0.33	0.94 L/kg	0.22	1.5 mL/min/kg	22.2 ×10⁻⁶ cm/s	3.3 10^−4 cm/s	
CN(C)CCc1c[nH]c2ccc(C[C@H]3COC(=O)N3)cc12 [Zolmitriptan]		20 mg/ml	2		56.8	8 % of dose	43.06 L/h	0.7		0.41	29.4 mL/min/kg			
